Source: patent publication US10570174B2, “Peptides for the treatment of malignant proliferative diseases” (Yissum Research Development Company of the Hebrew …, priority 2015, dated 2020)

What was measured:
[1] = tested on: 4T1 mammary carcinoma cells; experiment: Lung metastasis in mice inoculated with 4T1 cells, YHI1 and derivatives vs control compounds (Example 6); assay type: in vivo, BALB/c mice; details: i.p., doses molar equivalent to 30 ng/kg YHI1, day 5 to day 16, 6 days a week
Description: YHI1 and its derivatives YHI2 and YHI4 were tested in comparison to a scrambled sequence (designated ‘YHI3’), IIIM1 and Arg-Pbf. All peptides were synthesized to over 98% purity.
Female BALB/c mice (9-10 weeks old) were iv injected with 4T1 cells (1×10^4 cells in 0.2 ml culture medium; medium was replaced with fresh medium one day prior to the injection). The tested compounds were ip administered on day 5 after tumor cell inoculation and continued daily thereafter 6 days a week until day 16, on which day the mice were sacrificed (in YHI3 group one animal died 14 days after cell injection before end of study). Each mouse received 10 injections during 11 consecutive days. A control group of mice received the same volume of saline (vehicle) injections. Each group contained 8 mice (n=8). Additional 4 mice remained naïve (without tumor cell injection and without any treatment), designated here as ‘pure control’. At the end of the experiments the mice were sacrificed and their lungs were removed, weighed and quantified for number of foci.

[2] = tested on: D122 cells (3LL Lewis lung carcinoma); experiment: Tumor growth in footpads of mice injected with D122 lung tumor cells, i.p. YHI1; assay type: in vivo, C57BL/6 mice
Description: (§1) YHI1 was synthesized by solid phase synthesis to over 95% purity. To assess the effect of YHI1 on local tumor growth, lung cancer cells were injected into footpads of mice to induce the formation of a topical tumor, and the tumor size was measured in mice treated with several dosages of YHI1 or with vehicle only. Two separate experiments were carried out using this model, one in which YHI1 and vehicle were administered orally and another in which YHI1 and vehicle were administered via intraperitoneal (i.p.) injection.
Female C57BL/6 mice were injected in the footpads with D122 cells (2×10^5 cells per mouse suspended in 50 μl PBS). YHI1 was i.p. administered at the indicated doses 8, 6, 4 or 1 day prior to cell injection and thereafter up to 34 days, 3 times a week. Control mice received the vehicle (saline). Tumor size (diameter) was measured by a caliper. Baseline value (before cell injection) was subtracted from each measurement. Groups: control (n=10), and YHI1—0.1 μg/kg (n=10), 1 μg/kg (n=10), 10 μg/kg (n=11), 100 μg/kg (n=9).
The results are expressed as mean±SE using the Kruskal-Wallis test and Dunnett's multiple comparison post test for statistical evaluation of the differences between the treated groups and control group at each time point.

D122 cells [3] = experiment: Lung metastasis in mice i.v. injected with D122 cells, treatment started before cell injection; assay type: in vivo, C57BL/6 mice; details: for reduction in Δ lung weight compared to control: day 35
Description: To examine the effect of YHI1 on cancer cell metastasis, lung metastasis was induced in mice, and the lung weight and the number of large metastases in mice treated with YHI1 or with vehicle only were measured.
Female C57BL/6 mice were i.v. injected with D122 cells (5×10^5 cells per mouse suspended in 100 μl PBS). YHI1 was i.p. administered at doses of 0.1 μg/kg body weight and 0.01 μg/kg body weight 8, 6, 4 and 1 day prior to cell injection and thereafter up to 35 days, 3 times a week. Control mice received the vehicle (saline).
Lung weight was determined on day 35 for each animal. Mean weight of lungs of healthy-non injected mice was subtracted from each value of the experimental and control groups, and the results are expressed as A lung weight. n=11, 10 and 9 mice for control, YHI1 0.1 and 0.01 μg/kg groups, respectively. Results are expressed as mean±SE using the Kruskal-Wallis test and Dunnett's multiple comparison post test for statistical evaluation of the differences in lung weight between the experimental groups and control mice. *p<0.05 for both 0.1 μg/kg and 0.01 μg/kg groups.
The number of large visible metastases in the lungs was next quantified. […] The results are expressed as mean±SE. *p<0.05 Mann Whitney test.
The lungs were then fixed, sectioned and stained with H&E for histopathological evaluation.

D122 cells [4] = experiment: Lung metastasis in mice i.v. injected with D122 cells, treatment started 7 days after cell injection; assay type: in vivo, C57BL/6 mice; details: i.p. 0.01 μg/kg from 7 days after cell injection
Description: To assess whether time of treatment affects the metastasis process, YHI1 was administered 7 days after tumor cell injection. Female C57BL/6 mice were i.v. injected with D122 cells (5×10^5 cells per mouse suspended in 100 μl PBS). YHI1 was i.p. administered at a dose of 0.01 μg/kg body weight (volume of 0.1 ml) 7 days after cell injection and thereafter up to 35 days, 3 times a week. Control mice received the vehicle (saline). Lung weight, number of tumors, lung histology (H&E) and survival were determined on day 35 after cell inoculation for each animal Lung weight was compared to a healthy lung removed from a naïve animal.

[5] = tested on: 4T1 mammary carcinoma cells; experiment: Lung metastasis in mice inoculated with 4T1 mammary carcinoma cells (Example 4); assay type: in vivo, BALB/c mice; design: Score (histological score of lung, per specimen): scale not given here
Description: Female BALB/c mice (9-10 weeks) were i.v. injected with mammary 4T1 tumor cells (1×10^4 cells in 0.2 ml culture medium). YHI1 was i.p. administered to the mice at doses of 3, 10 and 30 ng/kg body weight (0.1 ml) on day 5 after tumor cell inoculation and thereafter 6 days a week, until day 21, on which day the mice were sacrificed. Control mice received saline (vehicle) injections. Additional 3 mice remained naïve (“pure control”, no cell injection, no treatment). Each dose group contained 10 mice. At the end of the experiments the mice were sacrificed, the lungs of the mice were removed, weighed and quantified for the number of foci.

[6] = tested on: D122 cells (3LL Lewis lung carcinoma); experiment: Tumor growth in footpads of mice injected with D122 lung tumor cells, oral YHI1; assay type: in vivo, C57BL/6 mice
Description: as §1
Female C57BL/6 mice were injected in the footpads with D122 cells (2×10^5 cells per mouse suspended in 50 μl PBS), a highly metastatic 3LL Lewis lung carcinoma. YHI1 (dissolved in saline) was orally administered at the indicated doses 8, 6, 4 and 1 day prior to cell injection and thereafter during 35 days, 3 times a week. Control mice received the vehicle (saline). Tumor size (diameter) was measured by a caliper. Baseline value (before cell injection) was subtracted from each measurement. Groups: control (n=10), and YHI1—0.1 mg/kg (n=9), 1 mg/kg (n=10), 5 mg/kg (n=8).
The results are expressed as mean±SE. p<0.05 for 5 mg/kg group versus control, for the period of 23-35 days (Mann-Whitney test).

B16-F10 cells = experiment: Tumorigenicity of B16-F10 melanoma cells injected subcutaneously; assay type: in vivo, C57BL/6 mice; details: 17 days after cell injection
Description: To examine the effect of YHI1 on melanoma tumor cells, female C57BL/6 mice (6-7 weeks) were subcutaneously injected in the lateral thoracic-abdominal area with B16-F10 cells (2×10^5 cells in 0.1 ml culture medium). YHI1 was i.p. administered at doses of 30 and 100 ng/kg body weight (0.1 ml) on day 3 after tumor cell inoculation and thereafter until day 20 of tumor cell inoculation, 6 times a week. Control mice received saline (vehicle) injections. Each dose group contained 10 mice. Tumor size was measured along the experiment and was expressed as multiplication of length and width of the tumor.

For “H-Lys-Gly-His-Tyr-Ala-Glu-Arg(NO2)-Val-Gly-OH (KGHYAEXVG; HELM PEPTIDE1{K.G.H.Y.A.E.[N=C(NCCC[C@H](N[*:1])C(=O)[*:2])N[N+](=O)[O-]].V.G}$$$$V2.0; SMILES CC(C)[C@H](NC(=O)[C@H](CCCNC(=N)N[N+](=O)[O-])NC(=O)[C@H](CCC(=O)O)NC(=O)[C@H](C)NC(=O)[C@H](Cc1ccc(O)cc1)NC(=O)[C@H](Cc1c[nH]cn1)NC(=O)CNC(=O)[C@@H](N)CCCCN)C(=O)NCC(=O)O) [YHI4, KGHYAER(NO2)VG, derivative of YHI1]”, the “lung weight compared to saline control” value [1] was “significant reduction” and the “number of tumors per lung compared to saline control” value [1] was “reduction was not statistically significant”.

For “H-Lys-Gly-His-Tyr-Ala-Glu-Arg(Pbf)-Val-Gly-OH (KGHYAEXVG; HELM PEPTIDE1{K.G.H.Y.A.E.[Cc1c(C)c(S(=O)(=O)NC(=N)NCCC[C@H](N[*:1])C(=O)[*:2])c(C)c2c1OC(C)(C)C2].V.G}$$$$V2.0; SMILES Cc1c(C)c(S(=O)(=O)NC(=N)NCCC[C@H](NC(=O)[C@H](CCC(=O)O)NC(=O)[C@H](C)NC(=O)[C@H](Cc2ccc(O)cc2)NC(=O)[C@H](Cc2c[nH]cn2)NC(=O)CNC(=O)[C@@H](N)CCCCN)C(=O)N[C@H](C(=O)NCC(=O)O)C(C)C)c(C)c2c1OC(C)(C)C2) [YHI1]”, the “reduction of tumor size, comparison between doses” value ([2]; 0.1 μg/kg vs higher doses up to 100 μg/kg) was “more effective in reducing tumor size than higher doses”, the “rate of tumor growth (tumor size, diameter)” value ([2]; 0.1-100 μg/kg, 8, 6, 4, 1 day prior to cell injection and 3 times a week up to 34 days) was “reduced the rate of tumor growth” and the “number of large visible metastases in the lungs” value (D122 cells [3]; i.p. 0.01 μg/kg) was “totally eliminated visible metastases”. For the same substance, the “reduction in Δ lung weight compared to control” value (D122 cells [3]; i.p. 0.01 μg/kg) was 87%, the “lung histopathology (H&E)” value (D122 cells [3]; i.p. 0.01 μg/kg, representative section) was “tumor free” and the “reduction of number of large metastases compared to control” value (D122 cells [3]; i.p. 0.1 μg/kg) was 58%. The “reduction in Δ lung weight compared to control” value (D122 cells [3]; i.p. 0.1 μg/kg) was 78%, the “lung weight compared to saline control” value [1] was “significant reduction” and the “number of tumors per lung compared to saline control” value [1] was “significant reduction”. The “histological lung sections (H&E)” value (D122 cells [4]) was “only a single focus of viable tumor”, the “histological score of lung metastasis” value (D122 cells [4]) was “significantly reduced” and the “lung weight lower than control” value (D122 cells [4]; day 35) was 63%. The “number of large and medium sized metastases in the lungs” value (D122 cells [4]; day 35) was “significantly reduced”, the survival (D122 cells [4]; control 80% survival) was “full animal survival” and the “Description (blindly evaluated) of lung histology, per specimen” value ([5]; 30 ng/kg, individual specimens i-X) was “No metastases observed”. The “Score (histological score of lung, per specimen)” value ([5]; 30 ng/kg, individual specimens i-X, blindly evaluated) was 0, the “effect on foci number” value ([5]; i.p. 3 ng/kg) was “no effect” and the “effect on lung weight” value ([5]; i.p. 3 ng/kg, day 5 to day 21, 6 days a week) was “no effect”. The “reduction of number of lung foci vs control” value ([5]; i.p. 10 ng/kg) was 94%, the “reduction of lung weight vs control” value ([5]; i.p. 10 ng/kg, day 5 to day 21, 6 days a week) was 65% and the “reduction of number of lung foci vs control” value ([5]; i.p. 30 ng/kg) was 100%. For the same substance, the “histological score of lung metastasis (group)” value ([5]; i.p. 30 ng/kg vs control) was “significantly reduced”, the “reduction of lung weight vs control” value ([5]; i.p. 30 ng/kg, day 5 to day 21, 6 days a week) was 78% and the histological lung section ([5]; i.p. 30 ng/kg, representative section) was “normal lung tissue with no evidence of metastases”. The “reduction of tumor size, comparison between doses” value ([6]; oral, 5 mg/kg vs 1 mg/kg and 0.1 mg/kg) was “more effective in reducing tumor size than the lower doses”, the “rate of tumor growth (tumor size, diameter)” value ([6]; oral, 0.1, 1, 5 mg/kg, 8, 6, 4, 1 day prior to cell injection and 3 times a week during 35 days) was “reduced the rate of tumor growth” and the “effect on local tumor growth” value (B16-F10 cells; i.p. 30 ng/kg compared with 100 ng/kg) was “slightly weaker effect”. For the same substance, the “reduction of local tumor growth (tumor size, length x width)” value (B16-F10 cells; i.p. 100 ng/kg) was 55%.

“H-Lys-Gly-His-Tyr-Arg(Pbf)-Ala-Glu-Val-Gly-OH (KGHYXAEVG; HELM PEPTIDE1{K.G.H.Y.[Cc1c(C)c(S(=O)(=O)NC(=N)NCCC[C@H](N[*:1])C(=O)[*:2])c(C)c2c1OC(C)(C)C2].A.E.V.G}$$$$V2.0; SMILES Cc1c(C)c(S(=O)(=O)NC(=N)NCCC[C@H](NC(=O)[C@H](Cc2ccc(O)cc2)NC(=O)[C@H](Cc2c[nH]cn2)NC(=O)CNC(=O)[C@@H](N)CCCCN)C(=O)N[C@@H](C)C(=O)N[C@@H](CCC(=O)O)C(=O)N[C@H](C(=O)NCC(=O)O)C(C)C)c(C)c2c1OC(C)(C)C2) [YHI2, KGHYR(Pbf)AEVG, derivative of YHI1]” was tested, and the “lung weight compared to saline control” value [1] was “significant reduction” and the “number of tumors per lung compared to saline control” value [1] was “significant reduction”.
